Read-outs that look alike come from different tables or passages of the source.
Target: BMAL1 (Homo sapiens, UniProt O00327)
Design: PASB domain (residues 338–449); Protein thermal shift (PTS) fragment screen on recombinant human BMAL1(PASB), shift of melting temperature
Details: dTmB, binder

Chain of BMAL1 (O00327 338-449): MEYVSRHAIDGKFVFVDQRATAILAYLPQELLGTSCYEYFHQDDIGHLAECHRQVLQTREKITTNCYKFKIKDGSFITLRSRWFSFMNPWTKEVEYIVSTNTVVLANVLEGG

| Compound | Bmal1(PASB) dTmB | Bmal1(PASB) dTmB (Bmal1(PASB) dTmB) |
| --- | --- | --- |
| NC(=O)CN1C(=O)c2ccccc2C1=O [Prestw-Frag-1661, Compound 297] | -0.12 °C | – |
| OC(c1ccc(Cl)cc1)c1ccccn1 (stereo not shown) [Prestw-Frag-1346, Compound 414] | -1.29 °C | – |
| CCCC(=O)c1ccc(F)cc1 [Prestw-Frag-1368, Compound 311] | -0.19 °C | – |
| CC1=NN(c2ccccc2)C(=O)C1 [Prestw-Frag-1028, Compound 259] | – | 0.76 °C |
| O=C(O)CCc1ncc(-c2ccccc2)o1 [Prestw-Frag-2693, Compound 126] | 0.10 °C | – |
| O=C(O)C1(c2ccccc2)CCCC1 [Prestw-Frag-2049, Compound 104] | -0.56 °C | – |
| Cn1c(N)nc2ccccc21 [Prestw-Frag-3740, Compound 377] | -0.10 °C | – |
| O=C1Cc2cc(F)ccc2N1 [Prestw-Frag-3667, Compound 261] | -0.23 °C | – |
| OCC1CCNCC1 [Prestw-Frag-3727, Compound 325] | 0.08 °C | – |
| c1cnc2[nH]ncc2c1 [Prestw-Frag-1428, Compound 174] | -0.31 °C | – |
| O=C(Nc1ccccc1Cl)c1ccccc1O [Prestw-Frag-1545, Compound 383] | 1.33 °C | – |
| CC(=O)c1ccc2c(c1)Nc1ccccc1S2 [Prestw-Frag-2239, Compound 65] | 0.31 °C | – |
| COc1ccc(N)nn1 [Prestw-Frag-1167, Compound 140] | -0.58 °C | – |
| Cc1noc(N)c1C [Prestw-Frag-2021, Compound 114] | -0.18 °C | – |
| CNCCC(c1ccccc1)c1ccccc1 [Prestw-Frag-1772, Compound 410] | -1.48 °C | – |
| NCCOC(c1ccc(F)cc1)c1ccc(F)cc1 [Prestw-Frag-1925, Compound 448] | -1.45 °C | – |
| Cc1n[nH]c(C)c1N [Prestw-Frag-3724, Compound 23] | -1.19 °C | – |
| CNC(=O)c1ccc(Cl)cc1 [Prestw-Frag-2018, Compound 319] | -0.45 °C | – |
| O=C(O)CCCc1ccc(-c2ccccc2)cc1 [Prestw-Frag-1767, Compound 455] | -2.43 °C | – |
| c1ccc(CC2CCNCC2)cc1 [Prestw-Frag-1868, Compound 296] | -0.76 °C | – |
| Cc1cc(=O)n(-c2ccc(C)c(C)c2)[nH]1 [Prestw-Frag-3221, Compound 342] | 1.18 °C | – |
| COc1cc(C(N)=O)cc(OC)c1OC [Prestw-Frag-1731, Compound 341] | -0.33 °C | – |

| Compound | Bmal1(PASB) dTmB | Bmal1(PASB) dTmB (Bmal1(PASB) dTmB) |
| --- | --- | --- |
| NC(=O)NS(=O)(=O)c1ccccc1 [Prestw-Frag-1006, Compound 100] | 0.09 °C | – |
| O=C(O)Cc1cccs1 [Prestw-Frag-2140, Compound 161] | -0.19 °C | – |
| CCCOc1ccc(C(=O)OCC)cc1N [Prestw-Frag-2724, Compound 416] | -1.52 °C | – |
| C[N+](C)(CCO)Cc1ccccc1 [Prestw-Frag-1017, Compound 159] | -0.27 °C | – |
| CC(=O)c1ccc2c(c1)OCO2 [Prestw-Frag-3686, Compound 57] | -1.06 °C | – |
| Cc1cn(-c2cc(N)cc(C(F)(F)F)c2)cn1 [Prestw-Frag-3241, Compound 458] | -2.09 °C | – |
| c1ccc2c(c1)CCNCC2 [Prestw-Frag-3750, Compound 343] | -0.06 °C | – |
| CC(C)(C)NCC(O)COc1ccccc1C1CCCC1 (stereo not shown) [Prestw-Frag-0674, Compound 468] | -1.95 °C | – |
| OC1c2ccccc2CCc2ccccc21 [Prestw-Frag-2600, Compound 464] | -1.43 °C | – |
| c1ccc2c(c1)NCCO2 [Prestw-Frag-3732, Compound 54] | 0.57 °C | – |
| Nc1ccc([N+](=O)[O-])cc1Cl [Prestw-Frag-1543, Compound 463] | 0.66 °C | – |
| Nc1cccc(O)c1 [Prestw-Frag-2826, Compound 83] | -0.56 °C | – |
| NCC(O)COc1cccc2ccccc12 (stereo not shown) [Prestw-Frag-1389, Compound 450] | 1.58 °C | – |
| N#CCC(=O)N1CCCCC1 [Prestw-Frag-3730, Compound 302] | 0.12 °C | – |
| COc1ccc(CCN)cc1OC [Prestw-Frag-3454, Compound 202] | -0.13 °C | – |
| COc1cc2c(cc1OC)C(C)NCC2 (stereo not shown) [Prestw-Frag-2193, Compound 348] | -0.74 °C | – |
| COc1ccc2c(c1)CCC(C(=O)O)C2 (stereo not shown) [Prestw-Frag-3739, Compound 163] | 0.52 °C | – |
| O=C(c1ccccc1)c1ccc(Br)cc1 [Prestw-Frag-2912, Compound 22] | -1.94 °C | – |
| NCCc1c[nH]c2ccc(O)cc12 [Prestw-Frag-1643, Compound 78] | -0.60 °C | – |
| Oc1cccc2cccnc12 [Prestw-Frag-2592, Compound 119] | -0.26 °C | – |
| CCNC(=O)c1ccc(Cl)cc1 [Prestw-Frag-2818, Compound 347] | -0.36 °C | – |
| CCCOc1ccccc1C(=N)N [Prestw-Frag-1910, Compound 398] | -0.43 °C | – |

| Compound | Bmal1(PASB) dTmB | Bmal1(PASB) dTmB (Bmal1(PASB) dTmB) |
| --- | --- | --- |
| O=C(c1ccc(C(F)(F)F)cc1)C1CCCCC1 [Prestw-Frag-3334, Compound 225] | -0.21 °C | – |
| ClC1(Cl)CC1c1ccccc1 (stereo not shown) [Prestw-Frag-2566, Compound 328] | 0.06 °C | – |
| O=C1CNS(=O)(=O)c2ccsc21 [Prestw-Frag-2176, Compound 30] | -4.81 °C | – |
| Cc1cc(C(C)(C)C)cc(C)c1CC1=NCCN1 [Prestw-Frag-1575, Compound 425] | -1.26 °C | – |
| COc1ccc2c(c1)CCCC2 [Prestw-Frag-3188, Compound 32] | -0.52 °C | – |
| CCOc1ccccc1O [Prestw-Frag-2995, Compound 314] | -0.47 °C | – |
| CC1(c2ccccc2)NC(=O)NC1=O (stereo not shown) [Prestw-Frag-2652, Compound 273] | -0.17 °C | – |
| c1ccc(C(CCN2CCCCC2)c2ccccc2)cc1 [Prestw-Frag-1193, Compound 402] | -2.05 °C | – |
| COc1ccc(C(C)=O)c(O)c1 [Prestw-Frag-2701, Compound 250] | 0.06 °C | – |
| CC(C)(C)NCC(O)c1ccccc1 (stereo not shown) [Prestw-Frag-1929, Compound 213] | -0.34 °C | – |
| c1ccc(-n2ccnc2)cc1 [Prestw-Frag-3744, Compound 409] | -0.78 °C | – |
| Cc1c(C)c2c(c(C)c1O)CCC(C)(C)O2 [Prestw-Frag-2185, Compound 438] | 1.30 °C | – |
| O=C(O)c1ccc(Oc2ccccc2)cc1 [Prestw-Frag-1968, Compound 155] | -0.89 °C | – |
| NCCOCc1ccccc1 [Prestw-Frag-3749, Compound 335] | 0.05 °C | – |
| Cc1ccc(S(N)(=O)=O)cc1 [Prestw-Frag-1894, Compound 198] | -0.38 °C | – |
| CN1CCN(CCCC(=O)c2ccc(F)cc2)CC1 [Prestw-Frag-3692, Compound 279] | -0.28 °C | – |
| O=C(CCCN1CCNCC1)c1ccc(F)cc1 [Prestw-Frag-3426, Compound 470] | -0.60 °C | – |
| Oc1ccc(-c2ccc(F)cc2F)cc1 [Prestw-Frag-1237, Compound 467] | -0.75 °C | – |
| CCOC(=O)c1cccnc1 [Prestw-Frag-3382, Compound 96] | -0.50 °C | – |
| O=C1CNCCN1 [Prestw-Frag-3458, Compound 117] | -0.43 °C | – |
| CC(=O)NCCc1c[nH]c2ccccc12 [Prestw-Frag-1478, Compound 417] | -0.27 °C | – |
| CC(=O)N1CCN(c2ccc(O)cc2)CC1 [Prestw-Frag-2047, Compound 27] | -2.09 °C | – |

| Compound | Bmal1(PASB) dTmB | Bmal1(PASB) dTmB (Bmal1(PASB) dTmB) |
| --- | --- | --- |
| CCCCc1nc(Cl)c(CO)[nH]1 [Prestw-Frag-3114, Compound 336] | 0.07 °C | – |
| COc1ccc(C(=O)O)cc1N1CCCC1 [Prestw-Frag-1313, Compound 40] | -0.37 °C | – |
| Cc1cccc(O)c1 [Prestw-Frag-1791, Compound 216] | -0.80 °C | – |
| c1ccc2c(c1)OCO2 [Prestw-Frag-2299, Compound 175] | -0.52 °C | – |
| OC(c1ccccc1)(c1ccccc1)C1CCNCC1 [Prestw-Frag-1654, Compound 403] | -1.27 °C | – |
| O=c1[nH]ncc2ccccc12 [Prestw-Frag-1560, Compound 345] | -0.38 °C | – |
| COc1cc(NS(=O)(=O)c2ccc(N)cc2)ncn1 [Prestw-Frag-2337, Compound 376] | 0.09 °C | – |
| Cc1cccc(Nc2ccccc2C(=O)O)c1 [Prestw-Frag-1320, Compound 17] | -0.74 °C | – |
| CCOc1ccccc1C(=N)N [Prestw-Frag-3314, Compound 150] | -0.32 °C | – |
| Nc1ccc[nH]c1=O [Prestw-Frag-1060, Compound 123] | -2.04 °C | – |
| Clc1ccc(CNc2ccccn2)cc1 [Prestw-Frag-2356, Compound 344] | -0.84 °C | – |
| COc1ccc(N2CCN(c3ccc(N)cc3)CC2)cc1 [Prestw-Frag-1557, Compound 35] | 0.19 °C | – |
| OCCOc1cccc2[nH]ccc12 [Prestw-Frag-1595, Compound 110] | -0.17 °C | – |
| COc1ccc2ccncc2c1 [Prestw-Frag-1133, Compound 321] | -1.08 °C | – |
| CNCC(c1ccc(OC)cc1)C1(O)CCCCC1 (stereo not shown) [Prestw-Frag-1523, Compound 157] | -0.81 °C | – |
| CNC(C)(C)Cc1ccccc1 [Prestw-Frag-1141, Compound 101] | -0.69 °C | – |
| O=C1COc2ccccc21 [Prestw-Frag-1361, Compound 165] | -0.13 °C | – |
| c1ccc(C2CCCNCC2)cc1 (stereo not shown) [Prestw-Frag-3712, Compound 230] | -0.85 °C | – |
| c1ccc(-c2ccccc2-c2nn[nH]n2)cc1 [Prestw-Frag-1441, Compound 357] | -0.44 °C | – |

Source: PMC12037410, “Pharmacological targeting of BMAL1 modulates circadian and immune pathways” (Nature Chemical Biology, 2025)
